The text below walks through data of patent US5643926A, “Pyrazolidinone CCK and gastrin antagonists and pharmaceutical formulations thereof” (priority 1994, dated 1997).

Series [1] deals with T1, CCK receptor, mouse brain membranes (Mus musculus, UniProt P56481).
T1 construct: from tissue; host or cells: forebrain membranes of male CF-1 mice
T1 sequence (P56481 1-453): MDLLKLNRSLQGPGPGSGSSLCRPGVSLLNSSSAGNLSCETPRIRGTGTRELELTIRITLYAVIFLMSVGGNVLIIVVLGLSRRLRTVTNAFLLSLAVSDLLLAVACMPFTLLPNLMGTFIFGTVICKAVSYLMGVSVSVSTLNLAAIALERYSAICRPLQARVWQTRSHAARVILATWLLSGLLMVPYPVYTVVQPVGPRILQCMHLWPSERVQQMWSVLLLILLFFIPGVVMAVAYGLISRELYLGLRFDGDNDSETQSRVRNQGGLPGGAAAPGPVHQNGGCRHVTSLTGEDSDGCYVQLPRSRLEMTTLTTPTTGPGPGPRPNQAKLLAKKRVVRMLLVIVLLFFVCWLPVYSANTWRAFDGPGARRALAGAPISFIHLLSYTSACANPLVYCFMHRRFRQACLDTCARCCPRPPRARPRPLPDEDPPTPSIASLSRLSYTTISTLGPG
Put plainly: Brain CCK receptor binding (displacement of 125I-CCK-8 sulfate, mouse brain membranes). On the procedure: (§1) Test Procedures for CCK and Gastrin Receptor Binding (IC50)
Brain CCK receptor binding was performed using mouse brain membranes according to the method of Chang and Lotti (Proc. Natl. Acad. Sci. 83: 4923-4926, 1986). Male CF-1 mice, 23-25 g were sacrificed by cervical dislocation, the forebrain removed and placed in ice cold 50 mM Tris buffer, pH 7.4. The tissue was homogenized in 100 volumes of the Tris buffer with a Brinkman Polytron or Tekmar Tissumizer and then centrifuged at 40,000 g for 10 min. Pellets were resuspended in Tris buffer, centrifuged as above and then resuspended in 100 volumes of assay buffer, pH 6.5 (20 mM N-2-hydroxyethyl-piperazine-N'-2-ethane sulfonic acid (HEPES), 1 mM ethylene glycol bis(2-aminoethyl ether-N,N,N',N'-tetraaceticacid) (EGTA), 5 mM MgCl2, 130 mM NaCl, and 0.25 mg/ml bacitracin). The binding assay consisted of 50 μL of compound (or buffer for total binding), 50 μL of ^125 I-CCK-8 sulfate (20 pM) (Amersham IM-159), 200 μL of assay buffer and 200 μL of homogenate (80-120 μg protein). The samples were incubated at room temperature (25°) for 2 hours, and they were then filtered through GF/B glass fiber filters (soaked in wash buffer for 2 hours before use) using a 48 well Brandel cell harvester designed for receptor binding. The filters were washed twice with 3 ml of 50 mM Tris buffer, pH 7.4, containing 0.01% BSA and then counted for radioactivity in plastic tubes with a Micromedic 10/600 automatic gamma counter.
Compounds were dissolved in dimethyl sulfoxide (DMSO) at a concentration of 10 mM and then further diluted with assay buffer. The concentration of DMSO in the incubation was 0.1% or less and had no effect on the assay at that level. IC-50 values of displacement curves were determined using 7 concentrations of compound and were calculated using the ALLFIT computer program of DeLean, Munson and Rodbard (Am. J. Physiol. 235: E97-E102, 1978). Non-specific binding was determined as the displacement of the radioligand by 100 nM CCK-8 sulfate.
Table III below summarizes representative CCK and gastrin-binding tests results for exemplified compounds in accordance with this invention.

Series [2] is described as follows: Titration pKa. The conditions noted are these: 2:1 DMF:H2O as solvent. It is filed as physicochemical. From the text:
Tetrahydrofuran (THF) was dried by distillation from sodium/benzophenone.

Series [3] has as its target T2, peripheral type CCK receptors in rat pancreas (Rattus norvegicus, UniProt P30551).
T2 construct: Pancreas was obtained from male Sprague-Dawley rats; from tissue; host or cells: pancreas membranes of male Sprague-Dawley rats
T2 sequence (P30551 1-444): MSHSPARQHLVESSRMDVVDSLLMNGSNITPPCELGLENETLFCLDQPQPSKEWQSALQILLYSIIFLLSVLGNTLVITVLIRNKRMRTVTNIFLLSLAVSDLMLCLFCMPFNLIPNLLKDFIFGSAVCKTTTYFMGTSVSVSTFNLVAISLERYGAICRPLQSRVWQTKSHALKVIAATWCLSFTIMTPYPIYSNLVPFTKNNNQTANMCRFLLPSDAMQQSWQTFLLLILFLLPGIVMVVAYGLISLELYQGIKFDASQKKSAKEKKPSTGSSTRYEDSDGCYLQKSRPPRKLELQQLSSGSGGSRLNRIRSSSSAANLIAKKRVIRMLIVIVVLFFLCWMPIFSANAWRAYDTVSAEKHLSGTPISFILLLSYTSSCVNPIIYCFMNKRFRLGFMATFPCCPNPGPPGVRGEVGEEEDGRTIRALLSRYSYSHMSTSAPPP
Put plainly: Binding to peripheral type CCK receptors in rat pancreas (displacement of 3H-L-364,718). As to conditions: read-out: Pancreas CCK receptor binding, Percent Inhibition at 10 μM. As to the method:
as §1
Binding to peripheral type CCK receptors in rat pancreas was done according to the method of Chang et al. (Mol. Pharmacol. 30: 212-217, 1986) using ^3 H-L364, 718. Pancreas was obtained from male Sprague-Dawley rats, 150-200 g, after decapitation, and dissected free from adipose and connective tissue. The tissue was homogenized in 30 volumes of 50 mM Tris buffer, pH 7.4 and centrifuged at 40,000 g for 10 min. The tissue pellet was washed by resuspension and centrifugation as described above. The final pellet was suspended in 500 volumes of assay buffer (50 mM Tris buffer, pH 7.4, 5 mM MgCl2, 0.14 mg/ml bacitracin, and 5 mM dithiothreitol) to give a protein concentration of 30-60 μg/200 μl . Reagent volumes for the assay were the same as those used for CCK binding to brain membranes. Tritium labeled L-364,718 (Dupont NEN, NET-971) was used as the ligand at a concentration of 0.4-0.6 nM. The samples were incubated 1 hour at room temperature and then filtered as described for the CCK-brain receptor. Scintillation cocktail was added to the filters which were counted for radioactivity using a Micromedic Taurus automatic liquid scintillation counter.
Compound samples were prepared and IC-50 values were determined as described for the CCK-brain experiments. […]

For series [4], the target named is T3, gastrin receptor, guinea pig stomach mucosal membranes (Cavia porcellus, UniProt H0VZC5).
T3 construct: Guinea pig stomach fundus was obtained from male Hartley guinea pigs; from tissue; host or cells: stomach fundus mucosal membranes of male Hartley guinea pigs
T3 sequence (H0VZC5 1-426): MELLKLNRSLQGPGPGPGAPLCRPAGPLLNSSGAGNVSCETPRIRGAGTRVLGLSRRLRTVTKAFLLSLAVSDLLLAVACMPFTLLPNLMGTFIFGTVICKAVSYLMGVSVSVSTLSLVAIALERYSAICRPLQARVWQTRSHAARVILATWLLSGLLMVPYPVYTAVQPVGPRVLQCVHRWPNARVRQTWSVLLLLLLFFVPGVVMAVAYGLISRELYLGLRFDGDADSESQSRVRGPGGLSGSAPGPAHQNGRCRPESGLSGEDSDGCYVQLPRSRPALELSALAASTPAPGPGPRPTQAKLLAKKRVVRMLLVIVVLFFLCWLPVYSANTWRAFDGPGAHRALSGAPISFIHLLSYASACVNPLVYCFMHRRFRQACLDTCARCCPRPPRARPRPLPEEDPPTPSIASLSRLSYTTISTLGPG
Put plainly: Gastrin binding to guinea pig stomach mucosal membranes (displacement of 125I-gastrin I). The conditions noted are these: guinea pig gastric mucosa. As to the method:
as §1
The method used for gastrin binding to guinea pig stomach mucosal membranes was similar to that described by Takeuchi, Speir and Johnson (Am. J. Physiol. 237(3): E284-E294, 1979). Guinea pig stomach fundus was obtained from male Hartley guinea pigs, 300-350 g, and the mucosa was scraped off with a glass slide. The mucosa was homogenized in 50 mM Tris buffer, pH 7.4, containing 1 mM phenylmethanesulfonyl fluoride using a Dounce glass homogenizer, and the suspension was centrifuged at 40,000 g for 10 min. The resulting pellet was resuspended and centrifuged once more, the final pellet was then suspended in 100 ml assay buffer per 1 guinea pig stomach to give a protein concentration of 200-300 μg/200 μl. The assay buffer consisted of 50 mM Tris buffer, pH 7.4, 5 mM MgCl2, 0.14 mg/ml bacitracin, and 1 μg/ml each of leupeptin, chymostatin, aprotinin and pepstatin. Reagent volumes for the assay were the same as those used for CCK binding to brain membranes. […] The samples were incubated 3 hours at room temperature and filtered and counted as described for CCK binding to brain membranes. Compound samples were prepared and IC-50 values were determined as described for the CCK-brain receptor binding. Non-specific binding was determined using 100 nM gastrin I (human synthetic from Sigma Chemical Co.). […]

pIC50: −log10 of the molar value.

As to “1-[(4-Bromophenyl)aminocarbonyl]-2-(O-t-butyl-carboxymethyl)-4,5-diphenyl-3-pyrazolidinone and 1-[(4-bromophenyl)aminocarbonyl]-3-(O-t-butylcarboxymethoxy)-4,5-diphenyl- 2-pyrazoline [Example 11]”, the “Brain CCK receptor binding, Percent Inhibition at 10 μM” value in series [1] (at 10 μM) amounted to 67%.

On to “1-[(4-Bromophenyl)aminocarbonyl]-2-carboxymethyl-4,5-diphenyl-3-pyrazolidinone and 1-[(4-bromophenyl)aminocarbonyl]-3-carboxymethoxy-4,5-diphenyl-2-pyrazoline [Example 12]”, for which the “titration pKa” value in series [2] was determined as 4.8. `O=C(O)CN1C(=O)[C@H](c2ccccc2)[C@@H](c2ccccc2)N1C(=O)Nc1ccc(Br)cc1` (relative stereo) [Example 12 (N-), 1-[(4-Bromophenyl)aminocarbonyl]-2-carboxymethyl-4,5-diphenyl-3-pyrazolidinone]: the pIC50 in series [1] was 6.00. Consider `O=C1NN(C(=O)Cc2ccc(C(F)(F)F)cc2)[C@@H](c2ccccc2)[C@@H]1c1ccccc1` (relative stereo) [Example 77], for which, in series [3], the inhibition at 10 µM worked out at 4%.

As for `O=C1NN(c2nc3c(Cl)c(Cl)ccc3s2)[C@@H](c2ccccc2)[C@@H]1c1ccccc1` (relative stereo) [Example 86], the pIC50 in series [1] was 5.96.

As to `O=C1NN(C(=O)Nc2ccc3ccccc3c2)[C@@H](c2ccccc2)[C@@H]1c1ccccc1` (relative stereo) [Example 91], the pIC50 in series [4] was 7.21; in series [1], 8.00. Regarding `O=C1NN(C(=O)Nc2ccc(C(F)(F)F)cc2)C(c2ccccc2Cl)C1c1ccccc1` (centres unmarked) [Example 110], the inhibition at 10 µM in series [3] was determined as 47%.
